The values that follow are results of earlier work, collected in patent EP0630652A2, “Contrast media” (NYCOMED SALUTAR, INC., priority 1991, dated 1993).

Structures are written as SMILES.

The conditions of data set [1]: Caussen et al. ROFO 148: 683.
The conditions of data set [2]: Unger et al. Invest. Radiol. 21: 802 (1986).

Regarding `O=C([O-])CN(CCN(CC(=O)[O-])CC(=O)O)CCN(CC(=O)[O-])CC(=O)O.[Gd+3]` [GdDTPA], the side effect result in data set [1] (GI tract use) is given as “diarrhoea”. Further, the “contrast improvement in the GI tract” value in data set [1] (MRI) is listed as “relatively poor”. As to `O=C([O-])CN(CCN(CC(=O)[O-])CC(=O)[O-])CCN(CC(=O)[O-])CC(=O)[O-].[Yb+3]` [ytterbium DTPA], in data set [2], the LD₅₀ was 10 mmol/kg.
